Assay results taken from US8557797B2, “Triazolopyridine derivatives and their therapeutic use” (Chiesi Farmaceutici S.p.A., priority 2009, dated 2013).
pEC50, pIC50: −log10 of the molar value.

Assays:
p38α = biological target: T1, p38α (Homo sapiens, UniProt Q16539); assay: p38 Kinase Assay (ATF-2 phosphorylation ELISA); type: biochemical; conditions: 2 h pre-incubation, ATP 250 μM, 1% DMSO; read-out: p38α inhibition (IC50 values)
T1 construct: purchased Calbiochem 559324; host or cells: E. coli
T1 sequence (Q16539 whole entry): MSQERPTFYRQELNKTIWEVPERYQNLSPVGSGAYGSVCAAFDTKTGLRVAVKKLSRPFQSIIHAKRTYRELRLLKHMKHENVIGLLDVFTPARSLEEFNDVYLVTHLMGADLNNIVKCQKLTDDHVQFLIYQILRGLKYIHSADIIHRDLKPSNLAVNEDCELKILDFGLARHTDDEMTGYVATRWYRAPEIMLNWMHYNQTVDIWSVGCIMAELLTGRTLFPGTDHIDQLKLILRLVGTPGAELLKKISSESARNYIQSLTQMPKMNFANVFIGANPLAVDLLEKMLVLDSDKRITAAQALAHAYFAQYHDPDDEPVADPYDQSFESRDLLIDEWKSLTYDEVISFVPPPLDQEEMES
Procedure: Human recombinant p38 enzyme expressed in E. coli and activated by incubation with MKK6 enzyme (Calbiochem #559324) is used as source of enzyme activity.
The assay is carried in high binding, clear, flat bottom 96 well assay plates which have been coated with recombinant ATF-2 (Biosource #PHF0043). Test compounds are incubated with p38 kinase for 2 h prior to initiating the kinase assay by the addition of ATP to obtain an assay concentration of 250 μM. Phosphorylation of ATF-2 is detected and quantified using an ELISA. This consists of sequential incubation in the presence of anti-phospho-ATF2, biotinylated anti-IgG and streptavidin-HRP. Incubation with an HRP chromogenic substrate (TMB) results in absorbance that is proportional to the amount of phosphorylated substrate produced. Absorbance is detected using a multiwell plate reader.
Compounds are diluted in DMSO prior to addition to assay buffer, the final DMSO concentration in the assay being 1%.
The IC50 is defined as the concentration at which a given compound achieves 50% inhibition of control.

[1] = system: TNFα release from LPS activated THP-1 cells or PBMC's; assay: p38 Functional Assay (TNFα release after LPS); type: cell-based; conditions: Homo sapiens, 1 h pre-treatment, 0.3% DMSO, read-out: EC50 (inhibition of TNFα release)
Procedure: Inhibition of cellular p38 depresses the release of TNFα, a functional response which is quantified by measurement of the amount of TNFα in the supernatants of LPS activated THP-1 cells (an immortalised monocytic cell line) or peripheral blood mononuclear cells (PBMC's) isolated from freshly drawn human blood.
Cells seeded in 96 well plates are pre-treated by the addition of p38 inhibitors for 1 h followed by addition of lipopolysaccharide (LPS) to activate cytokine production and release. The amount of TNFα released into the cell supernatants is quantified using an R&D Systems enzyme linked immunosorbant assay (ELISA) kit (product DY210) following the manufacturers instructions.
Compounds are diluted in DMSO prior to addition, the final DMSO concentration in the assay being 0.3%. The EC50 is defined as the concentration at which a given compound achieves 50% inhibition of the control.

[2] = system: BAL cell influx induced by tobacco smoke; assay: Tobacco smoke induced pulmonary inflammation, mouse model of COPD inflammation; type: in vivo; conditions: mice, intranasal, 30, 100 or 300 μg/kg, 4 days TS, BAL 24 h after final exposure (FIG. 1)
Procedure: Pre-clinical mouse model of COPD inflammation—Tobacco smoke induced pulmonary inflammation. […] In this exposure protocol, mice were exposed in groups of 5 in individual clear polycarbonate chambers (27 cm×16 cm×12 cm). The TS from the cigarettes was allowed to enter the exposure chambers at a flow rate of 100 ml/min. In order to minimise any potential problems caused by repeated exposure to a high level of TS (6 cigarettes), the exposure of the mice to TS was increased gradually over the exposure period to a maximum of 6 cigarettes. The exposure schedule used for 4 days was as follows: Bronchoalveolar lavage was performed as follows: the trachea was cannulated using a Portex nylon intravenous cannula (pink luer fitting) shortened to approximately 8 mm. […] The cell pellet was re-suspended in a known volume of PBS and total cell numbers calculated by counting a stained (Turks stain) aliquot under a microscope using a haemocytometer. […] When dried and cover-slipped, differential cells were counted using light microscopy. Up to 400 cells were counted by unbiased operator using light microscopy. […] All results are presented as individual data points for each animal and the mean value was calculated for each group. […] Percentage inhibitions were automatically calculated within the Excel spreadsheets for the cell data using the formula below: […]

Question: Which results are given for `Cc1ccc(-n2nc(C(C)(C)C)cc2NC(=O)Nc2ccc(Sc3ccc4nnc(-c5cccc(OCCN6CCOCC6)c5)n4c3)cc2)cc1` [Example 10, 1-(5-tert-Butyl-2-p-tolyl-2H-pyrazol-3-yl)-3-(4-{3-[3-(2-morpholin-4-yl-ethoxy)-phenyl]-[1,2,4]triazolo[4,3-a]pyridin-6-ylsulfanyl}-phenyl)-urea]?
Answer: pIC50 (p38α): 7.00 to 8.00; pEC50 [1]: 7.00 to 8.00; BAL cell influx induced by TS [2]: significantly inhibited
